From patent publication US6869625B2, “Method of treating diabetes using plant argyrolobium roseum extract, and a process for the isolation of extract from the said plant” (Council of Scientific and Industrial Research, priority 2001, dated 2005)

System: normal, 18 h fasting, glucose loaded & streptozotocin induced hyperglycaemic rats
Assay: hypoglycaemic activity (blood sugar) in rats after oral dosing
Assay type: in vivo
Protocol: 1 kg of A. roseum (whole plant) is shade dried and powdered. The powdered plant material was extracted with ethyl alcohol (5 litres) for 20 hours. The alcohol extract was vacuum dried. The yield was 91 gms. The dried alcoholic extract was macerated successively with hexane and chloroform to give 8.2 gms. and 39.3 gms. of the extracts respectively. A flavonoid glycoside (230 mgs) was isolated from the chloroform extract by repeated column chromatography over silica gel of mesh size 60-120 micron. […] The onset of effect within ½ h and the effect lasted for more than five hours. The fall of blood sugar recorded with above dose was 26 mg/dl (n=24) as compared to fall of 17 & 23 mg/dl recorded with tolbutamide, 50 mg/kg p.o. (n=9) and glipizide, 0.5 mg/kg p.o. (n=8) respectively in 18 h fasting rats.

In the case of `Cc1cnc(C(=O)NCCc2ccc(S(=O)(=O)NC(=O)NC3CCCCC3)cc2)cn1` [glipizide], the “fall of blood sugar” value (0.5 mg/kg p.o., 18 h fasting rats (n=8)) is reported as 23 mg/dL.
With `CCCCNC(=O)NS(=O)(=O)c1ccc(C)cc1` [tolbutamide] the “fall of blood sugar” value (50 mg/kg p.o., 18 h fasting rats (n=9)) was 17 mg/dL.
